According to PubChem BioAssay (NCI):
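All cell lines were grown in 96-well plates and treated with compound for 48 hours. TGI: total growth inhibition.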

Key:
Test in all cases: NCI-60 cell line screen, 48 h
RPMI-8226 leukemia = tested on: RPMI-8226 leukemia
HOP-92 NSCLC = tested on: HOP-92 NSCLC
MDA-MB-435 = tested on: MDA-MB-435
OVCAR-4 ovarian = tested on: OVCAR-4 ovarian
TK-10 renal = tested on: TK-10 renal
KM12 colon = tested on: KM12 colon
HCT-116 colon = tested on: HCT-116 colon
DU-145 prostate = tested on: DU-145 prostate
EKVX NSCLC = tested on: EKVX NSCLC
NCI-H522 lung = tested on: NCI-H522 lung
NCI/ADR-RES ovarian = tested on: NCI/ADR-RES ovarian
ACHN renal = tested on: ACHN renal
MCF7 breast = tested on: MCF7 breast
MALME-3M melanoma = tested on: MALME-3M melanoma
COLO 205 colon = tested on: COLO 205 colon
T-47D breast = tested on: T-47D breast
CAKI-1 renal = tested on: CAKI-1 renal
OVCAR-5 ovarian = tested on: OVCAR-5 ovarian
OVCAR-8 ovarian = tested on: OVCAR-8 ovarian
M14 melanoma = tested on: M14 melanoma
HS 578T breast = tested on: HS 578T breast
SK-OV-3 ovarian = tested on: SK-OV-3 ovarian
SF-295 CNS = tested on: SF-295 CNS
HT29 colon = tested on: HT29 colon
NCI-H226 lung = tested on: NCI-H226 lung
UACC-257 melanoma = tested on: UACC-257 melanoma
NCI-H23 lung = tested on: NCI-H23 lung
NCI-H460 lung = tested on: NCI-H460 lung
OVCAR-3 ovarian = tested on: OVCAR-3 ovarian
PC-3 prostate = tested on: PC-3 prostate
IGROV1 ovarian = tested on: IGROV1 ovarian
A549 NSCLC = tested on: A549 NSCLC
SNB-19 CNS = tested on: SNB-19 CNS
786-0 renal = tested on: 786-0 renal
K-562 leukemia = tested on: K-562 leukemia
SN12C renal = tested on: SN12C renal
SK-MEL-2 melanoma = tested on: SK-MEL-2 melanoma
BT-549 breast = tested on: BT-549 breast
UO-31 renal = tested on: UO-31 renal
MOLT-4 leukemia = tested on: MOLT-4 leukemia
SK-MEL-28 melanoma = tested on: SK-MEL-28 melanoma
LOX IMVI melanoma = tested on: LOX IMVI melanoma
RXF 393 renal = tested on: RXF 393 renal
SK-MEL-5 melanoma = tested on: SK-MEL-5 melanoma
UACC-62 melanoma = tested on: UACC-62 melanoma
U251 CNS = tested on: U251 CNS
HCT-15 colon = tested on: HCT-15 colon
SF-539 CNS = tested on: SF-539 CNS
MDA-MB-231 breast = tested on: MDA-MB-231 breast
SF-268 CNS = tested on: SF-268 CNS
SW-620 colon = tested on: SW-620 colon
CCRF-CEM leukemia = tested on: CCRF-CEM leukemia
HOP-62 NSCLC = tested on: HOP-62 NSCLC
A498 renal = tested on: A498 renal
SNB-75 CNS = tested on: SNB-75 CNS
HCC-2998 colon = tested on: HCC-2998 colon
HL-60(TB) leukemia = tested on: HL-60(TB) leukemia

CCOc1c(OC)cc(C2c3cc4c(c(OCC)c3CC3COC(=O)C32)OCO4)cc1OC (stereo not given)
TGI (RPMI-8226 leukemia): 59.3 µM | TGI (HOP-92 NSCLC): > 100 µM | TGI (MDA-MB-435): 0.898 µM | TGI (OVCAR-4 ovarian): > 100 µM | TGI (TK-10 renal): 69.6 µM | TGI (KM12 colon): 11.3 µM | TGI (HCT-116 colon): 11.5 µM | TGI (DU-145 prostate): 12.1 µM | TGI (EKVX NSCLC): > 100 µM | TGI (NCI-H522 lung): 16.8 µM | TGI (NCI/ADR-RES ovarian): 7.17 µM | TGI (ACHN renal): 20.9 µM | TGI (MCF7 breast): > 100 µM | TGI (MALME-3M melanoma): 79.8 µM | TGI (COLO 205 colon): 6.98 µM | TGI (T-47D breast): > 100 µM | TGI (CAKI-1 renal): 55.7 µM | TGI (OVCAR-5 ovarian): 15.9 µM | TGI (OVCAR-8 ovarian): 6.38 µM | TGI (M14 melanoma): 43.3 µM | TGI (HS 578T breast): 21.9 µM | TGI (SK-OV-3 ovarian): > 100 µM | TGI (SF-295 CNS): 3.97 µM | TGI (HT29 colon): 10.4 µM | TGI (NCI-H226 lung): 46.9 µM | TGI (UACC-257 melanoma): 49.1 µM | TGI (NCI-H23 lung): 5.9 µM | TGI (NCI-H460 lung): > 100 µM | TGI (OVCAR-3 ovarian): 5.14 µM | TGI (PC-3 prostate): > 100 µM | TGI (IGROV1 ovarian): 80.5 µM | TGI (A549 NSCLC): 14.2 µM | TGI (SNB-19 CNS): > 100 µM | TGI (786-0 renal): 22.2 µM | TGI (K-562 leukemia): 19.4 µM | TGI (SN12C renal): 6.9 µM | TGI (SK-MEL-2 melanoma): > 100 µM | TGI (BT-549 breast): 64 µM | TGI (UO-31 renal): 27.3 µM | TGI (MOLT-4 leukemia): 7.69 µM | TGI (SK-MEL-28 melanoma): > 100 µM | TGI (LOX IMVI melanoma): 14 µM | TGI (RXF 393 renal): > 100 µM | TGI (SK-MEL-5 melanoma): 14.5 µM | TGI (UACC-62 melanoma): 2.27 µM | TGI (U251 CNS): 11.6 µM | TGI (HCT-15 colon): 2680 nM | TGI (SF-539 CNS): 4.91 µM | TGI (MDA-MB-231 breast): 6.47 µM | TGI (SF-268 CNS): 92.6 µM | TGI (SW-620 colon): > 100 µM | TGI (CCRF-CEM leukemia): 30.1 µM | TGI (HOP-62 NSCLC): 17.8 µM | TGI (A498 renal): 67.4 µM | TGI (SNB-75 CNS): > 100 µM

CCCCC(CCCC)=NNC(=S)SC
TGI (HOP-92 NSCLC): > 100 µM | TGI (MDA-MB-435): 47 µM | TGI (OVCAR-4 ovarian): 66.3 µM | TGI (TK-10 renal): 69.1 µM | TGI (HCT-116 colon): 38.6 µM | TGI (DU-145 prostate): > 100 µM | TGI (EKVX NSCLC): > 100 µM | TGI (NCI-H522 lung): 48.8 µM | TGI (NCI/ADR-RES ovarian): > 100 µM | TGI (ACHN renal): > 100 µM | TGI (MCF7 breast): > 100 µM | TGI (MALME-3M melanoma): 37.4 µM | TGI (COLO 205 colon): > 100 µM | TGI (T-47D breast): 74.1 µM | TGI (OVCAR-5 ovarian): > 100 µM | TGI (OVCAR-8 ovarian): 44.4 µM | TGI (M14 melanoma): 44.3 µM | TGI (HS 578T breast): > 100 µM | TGI (SK-OV-3 ovarian): > 100 µM | TGI (HT29 colon): > 100 µM | TGI (NCI-H226 lung): 57.6 µM | TGI (UACC-257 melanoma): 75.7 µM | TGI (NCI-H23 lung): > 100 µM | TGI (NCI-H460 lung): > 100 µM | TGI (PC-3 prostate): > 100 µM | TGI (A549 NSCLC): > 100 µM | TGI (SNB-19 CNS): > 100 µM | TGI (786-0 renal): > 100 µM | TGI (K-562 leukemia): > 100 µM | TGI (SN12C renal): > 100 µM | TGI (SK-MEL-2 melanoma): > 100 µM | TGI (BT-549 breast): > 100 µM | TGI (UO-31 renal): > 100 µM | TGI (MOLT-4 leukemia): 43.6 µM | TGI (SK-MEL-28 melanoma): > 100 µM | TGI (LOX IMVI melanoma): > 100 µM | TGI (RXF 393 renal): > 100 µM | TGI (SK-MEL-5 melanoma): 39.3 µM | TGI (UACC-62 melanoma): 57.8 µM | TGI (U251 CNS): > 100 µM | TGI (HCT-15 colon): > 100000 nM | TGI (SF-539 CNS): 67 µM | TGI (MDA-MB-231 breast): > 100 µM | TGI (SF-268 CNS): > 100 µM | TGI (HCC-2998 colon): 54.4 µM | TGI (SW-620 colon): > 100 µM | TGI (HOP-62 NSCLC): > 100 µM | TGI (A498 renal): > 100 µM | TGI (HL-60(TB) leukemia): 50.2 µM | TGI (SNB-75 CNS): > 100 µM
